Where two headings read alike, the source gives them in different places.
Experiments:
[1] = test system: normal liver cells immortalized MIHA; experiment: MTT cytotoxicity assay on normal liver cells immortalized MIHA; format: cell-based, human; details: for Survival rate (%): MTT, 72 h
Procedure: The cytotoxicity of Compound A to normal liver cells immortalized MIHA is tested with MTT assay.
For MTT assay, 10 μL MTT solution is added into each well of a 96-well plate. After 2 h incubation at 37° C., 100 μL 10% SDS solution with 10 mM HCl is added to dissolve the purple crystals. After 24 h incubation, the optical density (OD) readings at 595 nm are measured using a Perkin-Elmer Victor plate reader. The values of IC50 are determined using the method described in the cited literatures with some modifications. To determine the IC50 value of a compound in a cell line, the growth inhibitory effect of Compound A at different concentrations is measured by MTT assay. For each tested concentration, 3000 cells suspended in 100 μL culture medium are seeded in each well of a 96-well plate. The well containing 100 μL culture medium without cells is used as a blank. After an overnight culture, Compound A at the designed concentration is added. The OD values of the control group at 0 h (C0) and 72 h (C72) together with the compound treated groups at 72 h (T72) from the MTT assay are measured using the Perkin-Elmer Victor plate reader. The survival rates are calculated using the formula (T72−C0)/(C72−C0)×100%. The inhibition rates are calculated using the following formula [1−(T72−C0)/(C72−C0)]×100% and plotted against logarithmic concentrations by sigmoidal fit. IC50 is defined as the concentration of a compound inhibiting 50% of cell growth. Each IC50 test is performed in triplicate and repeated at least three times.

[2] = test system: HepG2; experiment: MTT cell viability assay, HepG2; format: cell-based; details: Homo sapiens; for IC50: HepG2, MTT
Source text: (§1) Curcumin and paclitaxel are used as the positive control.

[3] = test system: MDA-MB-231; experiment: MTT cell viability assay, MDA-MB-231; format: cell-based; details: Homo sapiens; MDA-MB-231, MTT, 72 h; read-out: Cytotoxicity Data IC50
Source text: as §1

[4] = test system: U87; experiment: MTT cell viability assay, U87; details: Homo sapiens, U-87 MG, 72 h, read-out: Cytotoxicity Data IC50 (μM)
Procedure: (§2) All test samples are dissolved in dimethyl sulfoxide (DMSO) to make stock solutions and further diluted in culture medium upon assay. Human cancer cell lines including U87, MDA-MB-231, AGS and HepG2 are cultured in RPMI 1640 or DMEM or DMEM/F12 medium, containing 10% fetal bovine serum. All cell lines are maintained at 37° C. in a humidified environment containing 5% CO2. To determine the effects of the compounds on cell viability, cell number is quantified using a standard colorimetric MTT assay. Cells are placed in a 96-well plate (5×10^3 cells/well) and allowed to attach overnight. Cells are treated with 5, 10, 20, 40 μM of each compound in culture medium for 72 h, respectively. Then, culture media are added with 20 μL of MTT (5 mg/mL stock in PBS) per well and incubated for 4 h at 37° C. Finally, culture media are discarded and 150 μL of DMSO is added to each well to dissolve the purple formazan crystals. Absorbance of the solution is measured using microplate reader spectrophotometer (Bio-Rad Laboratories, Inc., Hercules, Calif.), at a wavelength of 490 nm. Absorbance of untreated cells in medium (negative control) is 100%. Curcumin and paclitaxel are used as the positive control.

[5] = test system: AGS; experiment: MTT cell viability assay, AGS; details: Homo sapiens, 72 h, read-out: Cytotoxicity Data IC50 (μM)
Procedure: as §2

In the case of `COc1c(O)c(O)c2c(=O)c3c(CC=C(C)C)c(CC=C(C)C)c(O)c(O)c3oc2c1CC=C(C)C` [Compound A, 1,2,5,6-tetrahydroxy-3-methoxy-4,7,8-tri(3-methylbut-2-enyl)-xanthone], the “Survival rate (%)” value ([1]; compound A 5 μg/mL) is reported as 101.7881%, the “Survival rate (%)” value ([1]; compound A 10 μg/mL) is reported as 85.45% and the “Survival rate (%)” value ([1]; compound A 20 μg/mL) is reported as 85.89%. The “Survival rate (%)” value ([1]; compound A 40 μg/mL) was 68.01%, the “half toxic concentration TC50” value ([1]; from survival rate curve (FIG. 1)) was > 40 µg/mL and the “toxicity on normal cells” value ([1]; result in words) was “low toxicity”. The IC50 ([2]; read-out: IC50 on HepG2 cells growth) was 5.3 µg/mL, the inhibition at 0.8 µg/mL ([2]; HepG2, compound A 0.8 μg/mL, MTT, read-out: Inhibition rate %) was 7.79% and the inhibition at 1.6 µg/mL ([2]; HepG2, compound A 1.6 μg/mL, MTT, read-out: Inhibition rate %) was 8.16%. The inhibition at 3.125 µg/mL ([2]; HepG2, compound A 3.125 μg/mL, MTT, read-out: Inhibition rate %) was 15%, the inhibition at 6.25 µg/mL ([2]; HepG2, compound A 6.25 μg/mL, MTT, read-out: Inhibition rate %) was 59.2% and the inhibition at 12.5 µg/mL ([2]; HepG2, compound A 12.5 μg/mL, MTT, read-out: Inhibition rate %) was 75.6%. For the same compound, the inhibition at 25 µg/mL ([2]; HepG2, compound A 25 μg/mL, MTT, read-out: Inhibition rate %) was 76.6%, the inhibition at 50 µg/mL ([2]; HepG2, compound A 50 μg/mL, MTT, read-out: Inhibition rate %) was 69.3% and the inhibition at 100 µg/mL ([2]; HepG2, compound A 100 μg/mL, MTT, read-out: Inhibition rate %) was 74.3%.
`COc1c(OC)c(O)c2c(=O)c3c(CC=C(C)C)c(CC=C(C)C)c(O)c(O)c3oc2c1CC=C(C)C` [Compound B] gave an IC50 ([2]; 72 h, read-out: Cytotoxicity Data IC50) of 20.3 µM, an IC50 [3] of 70.5 µM and an IC50 [4] of 55.3 µM. The IC50 [5] was 31.1 µM.
`COc1cc(/C=C/C(=O)CC(=O)/C=C/c2ccc(O)c(OC)c2)ccc1O` [Curcumin] showed an IC50 [3] of 3.76 µM, an IC50 [4] of 20.8 µM and an IC50 [5] of 4.38 µM.
`CC(=O)O[C@H]1C(=O)[C@@]2(C)[C@H]([C@H](OC(=O)c3ccccc3)[C@]3(O)C[C@H](OC(=O)[C@H](O)[C@@H](NC(=O)c4ccccc4)c4ccccc4)C(C)=C1C3(C)C)[C@]1(OC(C)=O)CO[C@@H]1C[C@@H]2O` [Paclitaxel] showed an IC50 [4] of 285 µM and an IC50 [5] of 23.1 µM.
